The results in this text go back to patent US20260250318A1, “COMPOSITIONS AND METHODS FOR CROSSING THE BLOOD BRAIN BARRIER” (VOYAGER THERAPEUTICS, INC., priority 2022, published 2026).

The first experiment concerns brain. The experiment is described as follows: NGS fold enrichment of synthetic library (passage 3) in C57Bl/6 mice, first cross-species screen. The conditions noted are these: synthetic library passage 3, intravenous, RNA NGS, brain of C57Bl/6 mice, relative to wild-type AAV9. The experiment is classed as in vivo. The gist of the method: (§1)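 Passage-3 synthetic capsid library given intravenously […] to NHPs (2-4 years) and BALB/c or C57Bl/6 mice (n=3, 6-8 weeks). After e.g. 28 days, tissue RNA was RT-PCR amplified and NGS-sequenced; values are fold enrichment of each variant relative to wild-type AAV9.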
As for GYFVAAWSGQNQQT, the “Fold enrichment over AAV9 in the brain of Mice (C57Bl/6)” value (“Fold enrichment over AAV9 … (C57Bl/6)” for short) was 0.071 fold.
Still for that read-out and setting: next, GSGQNQHYSLHKQT: 1.485 fold.
Still for that read-out and setting: next, GAMTVTISGQNQQT: 0.443 fold.
As to GSGQHVSVANNQQT, the “Fold enrichment over AAV9 … (C57Bl/6)” value was found to be 0.974 fold.
Same read-out and setting: next, GSGSPHVKIQNQQT: 2.173 fold; GAMVSHSSGQNQQT: 0.739 fold.
Same read-out and setting: next, GSGQNQQLPHSNLT: 0.442 fold; GVSRGGPSGQNQQT: 0.750 fold; GLRLSTPSGQNQQT: 0.804 fold.
Same read-out and setting: next, GSGIAAQRTQNQQT: 1.062 fold; GSSPAPNSGQNQQT: 0.719 fold.
For the sequence GSGQMASRESNQQT, the “Fold enrichment over AAV9 … (C57Bl/6)” value was found to be 0.341 fold.
The same measure, in the same setting: next, GSGQNLAGRMDQQT: 0.362 fold; GSLSTPSSGQNQQT: 1.094 fold.
On to GAGSIIPSGQNQQT, for which the “Fold enrichment over AAV9 … (C57Bl/6)” value is 0.595 fold.
Consider GSGQNQQSMADHTT, for which the “Fold enrichment over AAV9 … (C57Bl/6)” value turned out to be 0.428 fold.
On the same count and under the same terms, next, GSGQPRSTGINQQT: 0.650 fold; GSGQNTGHLTMQQT: 1.026 fold.
The same measure, in the same setting: next, GAVGHSYSGQNQQT: 0.306 fold; GALVSPISGQNQQT: 0.640 fold.

Staying with this experiment, now noted: synthetic library passage 3, intravenous, RNA from brain of C57Bl/6 mice, NGS, relative to wild-type AAV9.
Regarding GSGQHLPLLGNQQT, the “Fold enrichment over AAV9 … (C57Bl/6)” value came to 0.519 fold.
Consider GSLVSTQSGQNQQT, for which the “Fold enrichment over AAV9 … (C57Bl/6)” value was 1.282 fold.
In the case of GPNSYPVSGQKQQT, the “Fold enrichment over AAV9 … (C57Bl/6)” value amounted to 0.736 fold.
Same read-out and setting: next, GSGQNQQHASSNNT: 0.789 fold.
The same measure, in the same setting: next, GNSQVKVSGQNQQT: 1.422 fold; GSGQNQQTGSSSRV: 0.995 fold.
Same read-out and setting: next, GSGQNQQSHGRIGT: 0.607 fold; GSNAQSAHGQNQQT: 0.976 fold.
Turning to GSGQNQQSQYMPRT, the “Fold enrichment over AAV9 … (C57Bl/6)” value is recorded as 0.549 fold.
In the case of GSGQHSNQHVNQQT, the “Fold enrichment over AAV9 … (C57Bl/6)” value is given as 0.955 fold.
Turning to GSGQNQQTLTASKE, the “Fold enrichment over AAV9 … (C57Bl/6)” value is 0.981 fold.
Take GSGQNAYSSQAQQT: the “Fold enrichment over AAV9 … (C57Bl/6)” value was 0.629 fold.

The test system of another experiment is brain, spinal cord, and DRG of the NHPs. In words: NGS fold enrichment of synthetic library (passage 3) in NHPs, first cross-species screen. To be noted: synthetic library passage 3, intravenous, RNA NGS, brain of NHPs, relative to wild-type AAV9. The experiment is classed as in vivo, cynomolgus macaques (Macaca fascicularis). The essentials:
as §1
Consider GYFVAAWSGQNQQT, for which the “Fold enrichment over AAV9 in the brain of NHPs” value was 4.488 fold.
The same measure, in the same setting: next, GSGQNQHYSLHKQT: 1.563 fold; GAMTVTISGQNQQT: 1.542 fold; GSGQHVSVANNQQT: 1.029 fold.
Consider GSGSPHVKIQNQQT, for which the “Fold enrichment over AAV9 in the brain of NHPs” value came out at 16.854 fold.
On the same count and under the same terms, next, GAMVSHSSGQNQQT: 1.833 fold; GSGQNQQLPHSNLT: 1.521 fold.
On the same count and under the same terms, next, GVSRGGPSGQNQQT: 1.028 fold.
On the same count and under the same terms, next, GLRLSTPSGQNQQT: 1.498 fold.
GSGIAAQRTQNQQT: the “Fold enrichment over AAV9 in the brain of NHPs” value turned out to be 1.665 fold.
Still for that read-out and setting: next, GSSPAPNSGQNQQT: 1.106 fold.
For the sequence GSGQMASRESNQQT, the “Fold enrichment over AAV9 in the brain of NHPs” value is reported as 2.492 fold.
Consider GSGQNLAGRMDQQT, for which the “Fold enrichment over AAV9 in the brain of NHPs” value is given as 1.864 fold.
Turning to GSLSTPSSGQNQQT, the “Fold enrichment over AAV9 in the brain of NHPs” value is recorded as 2.159 fold.
Consider GAGSIIPSGQNQQT, for which the “Fold enrichment over AAV9 in the brain of NHPs” value was determined as 2.129 fold.
The same measure, in the same setting: next, GSGQNQQSMADHTT: 1.494 fold; GSGQPRSTGINQQT: 1.061 fold; GSGQNTGHLTMQQT: 1.114 fold.
On the same count and under the same terms, next, GAVGHSYSGQNQQT: 1.706 fold.
Still for that read-out and setting: next, GALVSPISGQNQQT: 1.912 fold.

Still in this experiment, the particulars now being: synthetic library passage 3, intravenous, RNA NGS, spinal cord of NHPs, relative to wild-type AAV9.
For the sequence GYFVAAWSGQNQQT, the “Fold enrichment over AAV9 in the spinal cord of NHPs” value turned out to be 0.000 fold.
Still for that read-out and setting: next, GSGQNQHYSLHKQT: 3.399 fold.
For GAMTVTISGQNQQT, the “Fold enrichment over AAV9 in the spinal cord of NHPs” value turned out to be 6.249 fold.
Still for that read-out and setting: next, GSGQHVSVANNQQT: 5.734 fold; GSGSPHVKIQNQQT: 9.068 fold; GAMVSHSSGQNQQT: 8.999 fold.
GSGQNQQLPHSNLT: the “Fold enrichment over AAV9 in the spinal cord of NHPs” value was found to be 1.838 fold.
The same measure, in the same setting: next, GVSRGGPSGQNQQT: 1.611 fold; GLRLSTPSGQNQQT: 4.334 fold; GSGIAAQRTQNQQT: 2.691 fold.
Take GSSPAPNSGQNQQT: the “Fold enrichment over AAV9 in the spinal cord of NHPs” value stood at 2.229 fold.
On the same count and under the same terms, next, GSGQMASRESNQQT: 0.300 fold; GSGQNLAGRMDQQT: 0.085 fold; GSLSTPSSGQNQQT: 1.279 fold.
The same measure, in the same setting: next, GAGSIIPSGQNQQT: 7.164 fold; GSGQNQQSMADHTT: 1.728 fold; GSGQPRSTGINQQT: 0.693 fold.
The same measure, in the same setting: next, GSGQNTGHLTMQQT: 0.078 fold.
With GAVGHSYSGQNQQT, the “Fold enrichment over AAV9 in the spinal cord of NHPs” value is on record as 0.808 fold.
Same read-out and setting: next, GALVSPISGQNQQT: 1.051 fold.

Staying with this experiment, now noted: synthetic library passage 3, intravenous, RNA from brain of NHPs, NGS, relative to wild-type AAV9.
With GSGQHLPLLGNQQT, the “Fold enrichment over AAV9 in the brain of NHPs” value is listed as 1.175 fold.
Turning to GSLVSTQSGQNQQT, the “Fold enrichment over AAV9 in the brain of NHPs” value is reported as 1.305 fold.
On the same count and under the same terms, next, GPNSYPVSGQKQQT: 1.381 fold; GSGQNQQHASSNNT: 1.166 fold; GNSQVKVSGQNQQT: 1.158 fold.
Turning to GSGQNQQTGSSSRV, the “Fold enrichment over AAV9 in the brain of NHPs” value amounted to 1.176 fold.
Same read-out and setting: next, GSGQNQQSHGRIGT: 1.173 fold.
Same read-out and setting: next, GSNAQSAHGQNQQT: 1.371 fold; GSGQNQQSQYMPRT: 1.234 fold.
In the case of GSGQHSNQHVNQQT, the “Fold enrichment over AAV9 in the brain of NHPs” value turned out to be 1.192 fold.
For the sequence GSGQNQQTLTASKE, the “Fold enrichment over AAV9 in the brain of NHPs” value turned out to be 1.333 fold.
Turning to GSGQNAYSSQAQQT, the “Fold enrichment over AAV9 in the brain of NHPs” value was 1.201 fold.

The experiment is the same for the next values; noted with them: synthetic library passage 3, intravenous, RNA from spinal cord of NHPs, NGS, relative to wild-type AAV9.
With GSGQHLPLLGNQQT, the “Fold enrichment over AAV9 in the spinal cord of NHPs” value worked out at 1.739 fold.
The same measure, in the same setting: next, GSLVSTQSGQNQQT: 1.293 fold; GPNSYPVSGQKQQT: 4.040 fold; GSGQNQQHASSNNT: 7.155 fold.
On the same count and under the same terms, next, GNSQVKVSGQNQQT: 4.930 fold; GSGQNQQTGSSSRV: 0.580 fold.
The same measure, in the same setting: next, GSGQNQQSHGRIGT: 5.117 fold; GSNAQSAHGQNQQT: 0.888 fold; GSGQNQQSQYMPRT: 0.401 fold.
With GSGQHSNQHVNQQT, the “Fold enrichment over AAV9 in the spinal cord of NHPs” value was determined as 1.453 fold.
Turning to GSGQNQQTLTASKE, the “Fold enrichment over AAV9 in the spinal cord of NHPs” value was 1.152 fold.
On to GSGQNAYSSQAQQT, for which the “Fold enrichment over AAV9 in the spinal cord of NHPs” value was 12.096 fold.

The test system of the next experiment is brain. In words: NGS fold enrichment of synthetic library (passage 3) in BALB/c mice, first cross-species screen. The experiment is classed as in vivo. The conditions noted are these: synthetic library passage 3, intravenous, RNA NGS, brain of BALB/c mice, relative to wild-type AAV9. The gist of the method: as §1
With GYFVAAWSGQNQQT, the “Fold enrichment over AAV9 in the brain of Mice (BALB/c)” value (“Fold enrichment over AAV9 … (BALB/c)” below) is recorded as 0.175 fold.
For GSGQNQHYSLHKQT, the “Fold enrichment over AAV9 … (BALB/c)” value was 1.273 fold.
Still for that read-out and setting: next, GAMTVTISGQNQQT: 0.257 fold; GSGQHVSVANNQQT: 0.577 fold; GSGSPHVKIQNQQT: 2.227 fold.
Same read-out and setting: next, GAMVSHSSGQNQQT: 0.868 fold.
Still for that read-out and setting: next, GSGQNQQLPHSNLT: 0.283 fold; GVSRGGPSGQNQQT: 0.591 fold; GLRLSTPSGQNQQT: 0.522 fold.
Consider GSGIAAQRTQNQQT, for which the “Fold enrichment over AAV9 … (BALB/c)” value is listed as 0.754 fold.
For the sequence GSSPAPNSGQNQQT, the “Fold enrichment over AAV9 … (BALB/c)” value came out at 0.368 fold.
The same measure, in the same setting: next, GSGQMASRESNQQT: 0.288 fold; GSGQNLAGRMDQQT: 0.295 fold; GSLSTPSSGQNQQT: 0.669 fold.
Same read-out and setting: next, GAGSIIPSGQNQQT: 0.249 fold; GSGQNQQSMADHTT: 0.215 fold.
In the case of GSGQPRSTGINQQT, the “Fold enrichment over AAV9 … (BALB/c)” value is 0.542 fold.
As for GSGQNTGHLTMQQT, the “Fold enrichment over AAV9 … (BALB/c)” value was determined as 0.595 fold.
As for GAVGHSYSGQNQQT, the “Fold enrichment over AAV9 … (BALB/c)” value worked out at 0.536 fold.
The same measure, in the same setting: next, GALVSPISGQNQQT: 0.347 fold.

The experiment is the same for the next values; noted with them: synthetic library passage 3, intravenous, RNA from brain of BALB/c mice, NGS, relative to wild-type AAV9.
With GSGQHLPLLGNQQT, the “Fold enrichment over AAV9 … (BALB/c)” value is recorded as 0.347 fold.
Same read-out and setting: next, GSLVSTQSGQNQQT: 0.650 fold; GPNSYPVSGQKQQT: 0.834 fold.
Same read-out and setting: next, GSGQNQQHASSNNT: 0.896 fold.
Same read-out and setting: next, GNSQVKVSGQNQQT: 0.728 fold; GSGQNQQTGSSSRV: 1.128 fold; GSGQNQQSHGRIGT: 0.455 fold.
In the case of GSNAQSAHGQNQQT, the “Fold enrichment over AAV9 … (BALB/c)” value is listed as 0.245 fold.
Still for that read-out and setting: next, GSGQNQQSQYMPRT: 0.520 fold; GSGQHSNQHVNQQT: 0.558 fold.
Still for that read-out and setting: next, GSGQNQQTLTASKE: 1.172 fold.
On to GSGQNAYSSQAQQT, for which the “Fold enrichment over AAV9 … (BALB/c)” value is 0.216 fold.
